Source: patent US5063208A, “Peptidyl aminodiol renin inhibitors” (Abbott Laboratories, priority 1990, dated 1991)

Molecular target: T1, human renal renin (Homo sapiens, UniProt P00797)
T1 construct: human renal renin, free from acid proteolytic activity; from tissue
T1 sequence (P00797 67-406): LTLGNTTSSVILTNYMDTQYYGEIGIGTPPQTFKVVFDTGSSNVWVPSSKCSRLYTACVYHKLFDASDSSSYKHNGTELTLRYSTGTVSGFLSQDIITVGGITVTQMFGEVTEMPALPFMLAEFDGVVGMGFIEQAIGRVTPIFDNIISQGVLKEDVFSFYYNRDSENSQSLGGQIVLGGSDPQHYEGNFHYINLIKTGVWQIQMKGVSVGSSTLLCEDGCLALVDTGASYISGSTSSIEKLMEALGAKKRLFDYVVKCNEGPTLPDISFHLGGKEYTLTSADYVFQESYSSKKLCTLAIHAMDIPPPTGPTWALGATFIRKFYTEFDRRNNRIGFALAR
Test: Inhibition of human renal renin in vitro (angiotensin I formed measured by radioimmunoassay)
Type: biochemical
Conditions: human renal renin free from acid proteolytic activity, renin substrate human angiotensinogen, 37 degrees C, pH 6.0; read-out: IC50 (molar concentration required to cause 50% inhibition)
Procedure: The compounds of the invention are also useful for treating congestive heart failure in a mammal. […] At the end of the incubation, the amount of angiotensin I formed is measured by radioimmunoassay and the molar concentration required to cause 50% inhibition, expressed as the IC50, is calculated.

SMILES	IC50 [nM]
CC(C)C[C@H](O)[C@H](O)[C@H](CC1CCCCC1)NC(=O)[C@H](Cn1cccn1)NC(=O)[C@@H](CC(=O)N(C)CCn1ccnc1)Cc1ccccc1 [Example 120, (2R)-2-Benzyl-3-[(2-imidazol-1-ylethyl)methylaminocarbonyl]propionyl-L-(1-pyrazolyl)Ala Amide of (2S,3R,4S)-2-Amino-1-cyclohexyl-3,4-dihydroxy-6-methylheptane]	0.22
CC(C)C[C@H](O)[C@H](O)[C@H](CC1CCCCC1)NC(=O)[C@H](Cc1cscn1)NC(=O)[C@@H](CC(=O)N1CCN(C2CC2)CC1)Cc1ccccc1 [Example 125, (2R)-2-Benzyl-3-[(4-cyclopropylpiperazin-1-yl)carbonyl]propionyl-L-(4-thiazolyl)Ala Amide of (2S,3R,4S)-2-Amino-1-cyclohexyl-3,4-dihydroxy-6-methylheptane]	0.55
CC(C)C[C@H](O)[C@H](O)[C@H](CC1CCCCC1)NC(=O)[C@H](Cc1cscn1)NC(=O)[C@@H](CC(=O)N(C)CCN1CCOCC1)Cc1ccccc1 [Example 96, (2R)-2-Benzyl-3-[(2-morpholin-4-ylethyl)methylaminocarbonyl]propionyl-L-(4-thiazolyl)Ala Amide of (2S,3R,4S)-2-Amino-1-cyclohexyl-3,4-dihydroxy-6-methylheptane]	0.4
CCCC[C@H](NC(=O)C(Cc1ccccc1)CS(=O)(=O)C1CN(C)C1)C(=O)N[C@@H](CC1CCCCC1)[C@@H](O)[C@@H](O)CC(C)C (mixture of isomers) [Example 110, (2RS)-2-Benzyl-3-(1-methylazetidin-3-ylsulfonyl)propionyl-Nle Amide of (2S,3R,4S)-2-Amino-1-cyclohexyl-3,4-dihydroxy-6-methylheptane]	2.3
CC(C)C[C@H](O)[C@H](O)[C@H](CC1CCCCC1)NC(=O)[C@H](Cc1cscn1)NC(=O)[C@@H](CC(=O)CCCc1ccncc1)Cc1ccccc1 [Example 154, (2R)-2-Benzyl-3-[(2-pyridin-4-ylethyl)methylcarbonyl]propionyl-L-(4-thiazolyl)Ala Amide of (2S,3R,4S)-2-Amino-1-cyclohexyl-3,4-dihydroxy-6-methylheptane]	0.21
CC(C)C[C@H](O)[C@H](O)[C@H](CC1CCCCC1)NC(=O)[C@H](Cc1cscn1)NC(=O)[C@@H](CC(=O)CS(=O)(=O)C(C)(C)C)Cc1ccccc1 [Example 98, (2R)-2-Benzyl-5-tert-butylsulfonyl-4-oxopentanoyl-L-(4-thiazolyl)Ala Amide of (2S,3R,4S)-2-Amino-1-cyclohexyl-3,4-dihydroxy-6-methylheptane]	0.45
CC(C)C[C@H](O)[C@H](O)[C@H](CC1CCCCC1)NC(=O)[C@H](Cn1ccnc1)NC(=O)[C@@H](CC(=O)N(C)CCc1ccccn1)Cc1ccccc1 [Example 141, (2R)-2-Benzyl-3-[(2-pyridin-2-ylethyl)methylaminocarbonyl]propionyl-L-(1-imidazolyl)Ala Amide of (2S,3R,4S)-2-Amino-1-cyclohexyl-3,4-dihydroxy-6-methylheptane]	0.88
CC(C)C[C@H](O)[C@H](O)[C@H](CC1CCCCC1)NC(=O)[C@H](Cc1cscn1)NC(=O)[C@H](Cc1ccccc1)Cc1csc(N(C)C)n1 [Example 104, (2R)-2-Benzyl-3-(2-dimethylaminothiazol-4-yl)propionyl-L-(4-thiazolyl)Ala Amide of (2S,3R,4S)-2-Amino-1-cyclohexyl-3,4-dihydroxy-6-methylheptane]	0.43
CCCC[C@H](NC(=O)[C@@H](CC(=O)N(C)CCn1ccnc1)Cc1ccccc1)C(=O)N[C@@H](CC1CCCCC1)[C@@H](O)[C@@H](O)CC(C)C [Example 123, (2R)-2-Benzyl-3-[(2-imidazol-1-ylethyl)methylaminocarbonyl]propionyl-Nle Amide of (2S,3R,4S)-2-Amino-1-cyclohexyl-3,4-dihydroxy-6-methylheptane]	0.26
CCCC[C@H](NC(=O)[C@@H](CC(=O)N(C)CCc1ccccn1)Cc1ccccc1)C(=O)N[C@@H](CC1CCCCC1)[C@@H](O)[C@@H](O)CC(C)C [Example 122, (2R)-2-Benzyl-3-[(2-pyridin-2-ylethyl)methylaminocarbonyl]propionyl-Nle Amide of (2S,3R,4S)-2-Amino-1-cyclohexyl-3,4-dihydroxy-6-methylheptane]	0.43
CC(C)C[C@H](O)[C@H](O)[C@H](CC1CCCCC1)NC(=O)[C@H](Cc1cscn1)NC(=O)[C@H](Cc1ccccc1)N1CCOCC1 [Example 113, (2S)-2-(4-Morpholinyl)-3-phenylpropionyl-L-(4-thiazolyl)Ala Amide of (2S,3R,4S)-2-Amino-1-cyclohexyl-3,4-dihydroxy-6-methylheptane]	0.15
CC(C)C[C@H](O)[C@H](O)[C@H](CC1CCCCC1)NC(=O)[C@H](Cc1cscn1)NC(=O)[C@@H](Cc1ccccc1)CS(=O)(=O)C1CN(C)C1 [Example 108, (2R)-2-Benzyl-3-(1-methylazetidin-3-ylsulfonyl)propionyl-L-(4-thiazolyl)AlaAmide of (2S,3R,4S)-2-Amino-1-cyclohexyl-3,4-dihydroxy-6-methylheptane]	0.44
COc1ccc(C[C@H](NC(=O)N(C)CCc2ccccn2)C(=O)N[C@@H](Cc2cscn2)C(=O)N[C@@H](CC2CCCCC2)[C@@H](O)[C@@H](O)CC(C)C)cc1 [Example 115, [2-Pyridin-2-ylethyl(methyl)amino]carbonyl(O-methyl)pyrosine-L-(4-thiazolyl)Ala Amide of (2S,3R,4S)-2-Amino-1-cyclohexyl-3,4-dihydroxy-6-methylheptane]	0.78
CC(C)C[C@H](O)[C@H](O)[C@H](CC1CCCCC1)NC(=O)[C@H](Cn1cccn1)N(C)C(=O)C(Cc1ccccc1)NC(=O)N(C)CCc1ccccn1 (stereo partly drawn) [Example 156, [(2-pyridin-2-ylethyl)methylcarbonyl]phenylalanine-L-(N-α-methyl)-(1-pyrazolyl)alanine Amide of (2S,3R,4S)-2Amino-1-cyclohexyl-3,4-dihydroxy-6-methylheptane]	1.3
CC(C)C[C@H](O)[C@H](O)[C@H](CC1CCCCC1)NC(=O)[C@H](Cc1cscn1)NC(=O)[C@@H](CC(=O)N(C)CCN1CCN(C)CC1)Cc1ccccc1 [Example 116, (2R)-2-Benzyl-3-[2-(4-methyloioerazin-1-ylethyl)methylaminocarbonyl]propionyl-L-(4-thiazolyl) Ala Amide of (2S,3R,4S)-2-Amino-1-cyclohexyl-3,4-dihydroxy-6-methylheptane]	0.35
CC(C)C[C@H](O)[C@H](O)[C@H](CC1CCCCC1)NC(=O)[C@H](Cc1cscn1)NC(=O)[C@H](Cc1ccccc1)Cn1cccn1 [Example 101, (2R)-2-Benzyl-3-pyrazol-1-ylpropionyl-L-(4-thiazolyl)Ala Amide of (2S,3R,4S)-2-Amino-1-cyclohexyl-3,4-dihydroxy-6-methylheptane]	0.67
CC(C)C[C@H](NC(=O)[C@H](Cc1cscn1)NC(=O)[C@@H](CC(=O)N(C)CCn1cccn1)Cc1ccccc1)[C@@H](O)[C@@H](O)CC(C)C [Example 111, (2R)-2-Benzyl-3-[(2-pyrazol-1-ylethyl)methylaminocarbonyl]propionyl-L-(4-Thiazolyl)Ala Amide of (4S,5R,6S)-6-Amino-4,5-dihydroxy-2,8-dimethylnonane]	0.49
